# Patent publication US8008000B2, “Viral variants detection and application” (priority 2003, dated 2011)
# “Also recorded” adds a separate entry of the source. Where a name gives a salt, the structure may show the parent alone.
# Tests used:
# HBV [1] = test: Response of Patient E (chronic HBV infection) to treatment; format: in vivo, Hepatitis B virus; conditions: previously treated with lamivudine
# Source text: Reference herein to “decreased” or “reduced” in relation to sensitivity to ADV and/or LMV and/or FTC and/or TFV includes and encompasses a complete or substantial resistance to the nucleoside or nucleotide analog or other anti-HBV agents as well as partial resistance and includes a replication rate or replication efficiency which is more than a wild-type in the presence of a nucleoside or nucleotide analog or other anti-HBV agents. In one aspects this is conveniently measured by an increase in viral load during treatment, or alternatively, there is no substantial decrease in HBV DNA viral load from pretreatment HBV DNA levels during treatment (i.e., non-response to treatment).
# HBV [2] = conditions: 30 mg daily dose, over 12 weeks, phase II studies; cited from earlier work
# HBV [3] = test: HBV viral load in Patient A during ADV therapy; format: in vivo, Hepatitis B virus; conditions: Patient A on ADV treatment
# Source text: Patient A: During ADV treatment, unique HBV mutations were detected by sequencing (Table 4). This includes the unique mutation at rtT38K, and rtA181V. A number of other changes were also detected in the polymerase rtR55H and in the overlapping envelope gene (Table 4, FIGS. 4, 5 and 6). The changes in the HBsAg include sQ30K, sE44G, sA47T, sI126T, sA159V and sL173F. These unique changes were compared to reference sequences from each of the seven genotypes A-G as well as a consensus sequence from pretreatment samples to determine unique changes
# Hepatitis B surface antigen (HBsAg), hepatitis B e antigen (HBeAg), anti-HBe and hepatitis B core antigen (HBcAg) specific IgG and IgM were measured using commercially available immunoassays (Abbott Laboratories, North Chicago, Ill., USA). Hepatitis B viral DNA levels were measured using a capture hybridization assay according to the manufacturer's directions (Digene Hybrid Capture II, Digene Diagnostics Inc., Beltsville, Md.). The manufacturers stated cut-off for detecting HBV viremia in clinical specimens was 0.7×10^6 copies/ml or 2.5 pg/ml, [Hendricks et al., Am J Clin Pathol 104: 537-46, 1995]. HBV DNA levels can also be quantitated using other commercial kits such as Cobas amplification HBV monitor kit (Roche).
SMILES,response to treatment (HBV [1]),mean decrease in viremia (HBV [2]) [log10],HBV viral load (HBV [3]; 8 Jul. 2003),HBV viral load (HBV [3]; 14 Jan. 2003),HBV viral load (HBV [3]; 22 Oct. 2002)
"CC(C)(C)C(=O)OCOP(=O)(COCCn1cnc2c(N)ncnc21)OCOC(=O)C(C)(C)C [ADV, adefovir dipivoxil]",did not respond; also recorded: nonresponder,4,7.92E+07,1.21E+09,8.77E+06
"CC(C)OC(=O)OCOP(=O)(CO[C@H](C)Cn1cnc2c(N)ncnc21)OCOC(=O)OC(C)C [TFV, tenofovir disoproxil fumarate]",responded,–,–,–,–
